Data reported in patent US8293979B2, “Weed controller metabolism proteins, genes, thereof and use of the same” (Sumitomo Chemical Company, Limited, priority 2001, dated 2012).

Legend:
[1] = test system: present invention protein (A15); experiment: Metabolism of compounds by the present invention protein (A15), reaction solution, HPLC; type: in vitro ADME, Streptomyces olivochromogenes IFO 12444; conditions: 5 ppm of compound, components A, B, C, 20 μl supernatant fraction of Example 40(2), 30° C. for 10 minutes
present protein (A10) = molecular target: T1, present protein (A10) (Streptomyces griseolus, UniProt P18326); type: in vitro ADME, Streptomyces griseolus ATCC 11796; conditions: 5 ppm of compound, components A, B, C, 20 μl supernatant fraction of Example 10(2), 30° C. for 10 minutes, HPLC
T1 construct: made in house; host or cells: E. coli JM109 carrying pKSN11796 or pKSN11796F; 150,000 x g supernatant (crude extract)
T1 sequence (P18326 whole entry H308Q): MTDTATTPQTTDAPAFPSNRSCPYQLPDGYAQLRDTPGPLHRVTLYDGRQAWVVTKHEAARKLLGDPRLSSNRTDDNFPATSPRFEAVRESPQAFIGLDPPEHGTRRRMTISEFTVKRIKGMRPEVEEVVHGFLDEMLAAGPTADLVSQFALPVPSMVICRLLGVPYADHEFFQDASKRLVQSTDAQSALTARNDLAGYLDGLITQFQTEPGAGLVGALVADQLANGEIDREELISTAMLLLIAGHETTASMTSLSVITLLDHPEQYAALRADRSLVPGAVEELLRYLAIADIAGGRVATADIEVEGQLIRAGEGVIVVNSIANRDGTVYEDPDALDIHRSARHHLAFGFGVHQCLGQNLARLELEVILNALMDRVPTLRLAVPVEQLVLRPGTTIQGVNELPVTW

[2] = test system: present invention protein (A25); experiment: Metabolism of compounds by the present invention protein (A25), reaction solution, HPLC; type: in vitro ADME, Streptomyces steffisburgensis IFO 13446T; conditions: 12.5 ppm of compound, components A, B, C, 20 μl supernatant fraction of Example 67(2), 30° C. for 10 minutes
[3] = test system: present invention protein (A2); experiment: Metabolism of compounds by the present invention protein (A2), reaction solution, HPLC; type: in vitro ADME, Saccharopolyspora taberi JCM 9383t; conditions: 5 ppm of compound, components A, B, C, 20 μl supernatant fraction of Example 7(2), 30° C. for 10 minutes
[4] = test system: present invention protein (A13); experiment: Metabolism of compounds by the present invention protein (A13), reaction solution, HPLC; type: in vitro ADME, Streptomyces thermocoerulesces IFO 14273t; conditions: 5 ppm of compound, components A, B, C, 20 μl supernatant fraction of Example 36(2), 30° C. for 10 minutes
[5] = test system: present invention protein (A3); experiment: Metabolism of compounds by the present invention protein (A3), reaction solution, HPLC; type: in vitro ADME, Streptomyces testaceus ATCC21469; conditions: 5 ppm of compound, components A, B, C, 20 μl supernatant fraction of Example 12(2), 30° C. for 10 minutes
[6] = test system: present invention protein (A1); experiment: Metabolism of compounds by the present invention protein (A1), reaction solution, HPLC; type: in vitro ADME, Streptomyces phaeochromogenes IFO12898; conditions: 5 ppm of compound, components A, B, C, 20 μl supernatant fraction of Example 4(2), 30° C. for 10 minutes
Procedure: There was prepared 100 μl of a reaction solution of 50 mM potassium phosphate buffer (pH7.0) containing 5 ppm of compound (XII), 3 mM of […] (hereinafter, referred to as “component A”) (Oriental Yeast Company), 1 mg/ml of a ferredoxin derived from spinach (hereinafter referred to as “component B”) (Sigma Company), 0.15 U/ml of ferredoxin reductase (hereinafter, referred to as “component C”) (Sigma Company) and 20 μl of the supernatant fraction recovered in Example 4(2). The reaction solution was maintained at 30° C. for 10 minutes. Further, there was prepared and maintained similarly 100 μl of a reaction solution of a 50 mM potassium phosphate buffer (pH 7.0) having no addition of at least one component utilized in the composition of the above reaction solution, selected from component A, component B, component C and the supernatant fraction prepared in Example 4(2). Ten microliters (10 μl) of 2N HCl and 500 μl of ethyl acetate were added and mixed into each of the reaction solutions after the maintenance. The resulting reaction solutions were centrifuged at 8,000×g to recover 490 μl of the ethyl acetate layer. After drying the ethyl acetate layers under reduced pressure, the residue was dissolved in 100 μl of 50 mM of potassium phosphate buffer (pH7.0). Forty microliters (40 μl) of the fraction solutions (hereinafter, the fraction solution derived from the reaction solution containing component A, component B, component C and 20 μl of supernatant fraction recovered in Example 4(2) is referred to as “(XII) metabolism solution (A1);” further, the fraction solution derived from the reaction solution containing no component A, no component B, no component C and no supernatant fraction recovered in Example 4(2) is referred to as “(XII) control solution (A1)”) were analyzed on a HPLC. Compared to the concentration of compound (XII) detected from (XII) control solution (A1), the concentration of compound (XII) detected from (XII) metabolism solution (A1) was lower. Further a peak, which was not detected from the (XII) control solution (A1), was detected from the (XII) metabolism solution (A1). Mass spectrometry was conducted for the compound contained in such a peak. The mass of the compound contained in such a peak was 14 smaller than the mass of compound (XII).
Other than utilizing 5 ppm of compound (XIII) instead of 5 ppm of compound (XII), reaction solutions were prepared and maintained similarly to the method described in Example 41(2). […] Compared to the concentration of compound (XIII) detected from (XIII) control solution (A1), the concentration of compound (XIII) detected from (XIII) metabolism solution (A1) was lower. Further a peak, which was not detected from the (XIII) control solution (A1), was detected from the (XIII) metabolism solution (A1). […]

[7] = test system: present invention protein (A17); experiment: Metabolism of compounds by the present invention protein (A17), reaction solution, HPLC; type: in vitro ADME, Streptomyces griseus ATCC 10137; conditions: 12.5 ppm of compound, components A, B, C, 20 μl supernatant fraction of Example 51(2), 30° C. for 10 minutes
[8] = test system: present invention protein (A20); experiment: Metabolism of compounds by the present invention protein (A20), reaction solution, HPLC; type: in vitro ADME, Streptomyces lanatus IFO 12787T; conditions: 12.5 ppm of compound, components A, B, C, 20 μl supernatant fraction of Example 57(2), 30° C. for 10 minutes

Cn1c(C(F)(F)F)cc(=O)n(-c2cc(Oc3cccnc3OCC(=O)O)c(Cl)cc2F)c1=O [compound (XII)]
lower: concentration of the compound detected from metabolism solution (A15) compared to control solution (A15) [1] | concentration of the compound detected from metabolism solution (A10) compared to control solution (A10) (present protein (A10)) | concentration of the compound detected from metabolism solution (A25) compared to control solution (A25) [2] | concentration of the compound detected from metabolism solution (A2) compared to control solution (A2) [3] | concentration of the compound detected from metabolism solution (A13) compared to control solution (A13) [4] | concentration of the compound detected from metabolism solution (A3) compared to control solution (A3) [5] | concentration of the compound detected from metabolism solution (A1) compared to control solution (A1) [6] | concentration of the compound detected from metabolism solution (A17) compared to control solution (A17) [7] | concentration of the compound detected from metabolism solution (A20) compared to control solution (A20) [8]

Cn1c(C(F)(F)F)cc(=O)n(-c2cc(Oc3ccccc3OCC(=O)O)c(Cl)cc2F)c1=O [compound (XIII)]
lower: concentration of the compound detected from metabolism solution (A15) compared to control solution (A15) [1] | concentration of the compound detected from metabolism solution (A10) compared to control solution (A10) (present protein (A10)) | concentration of the compound detected from metabolism solution (A25) compared to control solution (A25) [2] | concentration of the compound detected from metabolism solution (A2) compared to control solution (A2) [3] | concentration of the compound detected from metabolism solution (A13) compared to control solution (A13) [4] | concentration of the compound detected from metabolism solution (A3) compared to control solution (A3) [5] | concentration of the compound detected from metabolism solution (A1) compared to control solution (A1) [6] | concentration of the compound detected from metabolism solution (A17) compared to control solution (A17) [7] | concentration of the compound detected from metabolism solution (A20) compared to control solution (A20) [8]
